From patent US8618289B2 (Ambit Biosciences Corporation, priority 2008, dated 2013)
Like-named read-outs stand apart in the source and are kept apart here.

Experiments:
[1] = system: 290 distinct kinases tested excluding mutant variants (321 in the larger panel)
Description: Competition binding assays used herein were developed, validated and performed as described in Fabian et al., Nature Biotechnology 2005, 23, 329-336. […] The liganded beads were blocked with excess biotin and washed with blocking buffer (SeaBlock (Pierce), 1% BSA, 0.05% Tween 20, 1 mM DTT) to remove unbound ligand and to reduce non-specific binding. […] Test compounds were prepared as 100× stocks in DMSO and rapidly diluted into the aqueous environment. DMSO was added to control assays lacking a test compound. Primary screen interactions were performed in polypropylene 384-well plates in a final volume of 34 μt, while Kd determinations were performed in polystyrene 96-well plates in a final volume of 135 pt. […] The kinase concentration in the eluates was measured by quantitative PCR. Each kinase was tested individually against each compound. Kds were determined using eleven serial threefold dilutions. A selectivity score, which is a quantitative measure of selectivity of a compound against a panel of enzymes, may be calculated for a compound by dividing the number of enzymes for which a compound meets a set criteria, (for example, a binding constant of 100 nM or less), by the total number of enzymes tested. […] (Note, for those compounds tested in a larger kinase panel, as indicated by an asterisk (*) next to the S35 score, the divisor is 321 (i.e. the larger panel contains 321 distinct kinases, excluding mutant variants.)).

[2] = system: MEK1 phosphorylation in the A375 human melanoma cell line; assay: cells; details: A-375, read-out: pMEK IC50
Description: A375 cells (from American Type Culture Collection) were plated at 50,000 cells per well in DMEM (Mediatech) with 10% fetal bovine serum (Omega Scientific) into a 96 well plate and incubated overnight in a 37° C. incubator with 10% CO2. The cells were then washed with PBS and the medium replaced with 0.5% FBS for incubation overnight. […] The cells were incubated with compound or control for two hours at 37° C. The compound solution was aspirated off and the cells washed with cold PBS. […] The plate was centrifuged for 30 minutes to pellet out the cell debris. The cleared lysates were transferred to a 96-well Nunc plate and the ELISA protocol described by the manufacturer in Catalog #KHO0321 or KHO0291 was followed.

[3] = system: A375 cells; assay: cells; details: Homo sapiens, A-375, read-out: A375 Viability EC50
[4] = biological target: T1, RAF kinases (Homo sapiens, UniProt P04049); assay: biochemical
[5] = biological target: RAF kinases (Homo sapiens, UniProt P15056); assay: biochemical
[6] = biological target: T2, RAF kinases (Homo sapiens, UniProt P15056, V600E); assay: biochemical
[7] = biological target: T2, RAF kinases; details: read-out: BRAF V600E Kd; BRAF V600E
[8] = biological target: T1, RAF kinases; details: read-out: RAF1 Kd; RAF1
[9] = no asterisk: panel of 290 distinct kinases

T2 sequence (P15056 whole entry V600E): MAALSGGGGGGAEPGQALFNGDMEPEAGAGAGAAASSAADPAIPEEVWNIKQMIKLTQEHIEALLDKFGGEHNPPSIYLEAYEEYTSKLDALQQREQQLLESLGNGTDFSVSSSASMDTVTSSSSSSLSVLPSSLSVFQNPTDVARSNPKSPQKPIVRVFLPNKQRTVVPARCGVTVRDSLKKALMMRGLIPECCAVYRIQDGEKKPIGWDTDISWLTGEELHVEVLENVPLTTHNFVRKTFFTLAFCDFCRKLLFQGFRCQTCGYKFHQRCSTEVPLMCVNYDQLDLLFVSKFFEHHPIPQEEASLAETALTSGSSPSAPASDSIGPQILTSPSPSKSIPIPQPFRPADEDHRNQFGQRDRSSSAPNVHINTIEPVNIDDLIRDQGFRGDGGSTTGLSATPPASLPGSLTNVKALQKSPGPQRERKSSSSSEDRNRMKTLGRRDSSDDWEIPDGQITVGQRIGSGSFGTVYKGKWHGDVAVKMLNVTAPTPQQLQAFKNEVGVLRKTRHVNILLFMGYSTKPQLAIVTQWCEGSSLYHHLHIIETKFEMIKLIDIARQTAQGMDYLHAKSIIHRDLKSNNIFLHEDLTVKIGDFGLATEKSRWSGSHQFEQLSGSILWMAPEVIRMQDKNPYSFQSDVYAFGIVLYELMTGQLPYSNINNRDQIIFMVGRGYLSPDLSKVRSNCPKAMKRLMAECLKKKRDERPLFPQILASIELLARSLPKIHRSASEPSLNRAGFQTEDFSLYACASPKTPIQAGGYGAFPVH
T1 sequence (P04049 whole entry): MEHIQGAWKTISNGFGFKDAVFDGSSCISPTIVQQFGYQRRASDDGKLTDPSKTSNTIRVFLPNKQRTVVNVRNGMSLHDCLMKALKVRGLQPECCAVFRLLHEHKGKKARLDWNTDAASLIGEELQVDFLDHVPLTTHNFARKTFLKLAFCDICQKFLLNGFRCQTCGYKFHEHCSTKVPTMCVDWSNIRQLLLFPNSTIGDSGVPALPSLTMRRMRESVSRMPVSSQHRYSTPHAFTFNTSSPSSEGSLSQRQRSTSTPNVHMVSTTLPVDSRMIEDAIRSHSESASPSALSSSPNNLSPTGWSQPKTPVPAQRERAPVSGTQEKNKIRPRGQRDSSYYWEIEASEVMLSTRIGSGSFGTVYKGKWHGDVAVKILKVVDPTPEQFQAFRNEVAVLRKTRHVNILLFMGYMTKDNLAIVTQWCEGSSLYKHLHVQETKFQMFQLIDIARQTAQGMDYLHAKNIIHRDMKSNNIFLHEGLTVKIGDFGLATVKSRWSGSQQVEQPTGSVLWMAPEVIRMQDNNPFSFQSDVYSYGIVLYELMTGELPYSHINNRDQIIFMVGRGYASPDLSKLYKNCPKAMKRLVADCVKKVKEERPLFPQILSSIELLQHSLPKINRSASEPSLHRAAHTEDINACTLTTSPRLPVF
Sequence of RAF kinases (Homo sapiens, UniProt P15056) (P15056 whole entry): as the sequence (P15056 whole entry V600E) above, with E600V counted along it

Compound: COc1cc2c(Sc3cccc(NC(=O)Nc4cc(C(C)(C)C)on4)c3)ncnc2cc1OCCN1CCN(CCO)CC1 [Ex 84, 1-(5-tert-butylisoxazol-3-yl)-3-(3-(7-(2-(4-(2-hydroxyethyl)piperazin-1-yl)ethoxy)-6-methoxyquinazolin-4-ylthio)phenyl)urea]
- S35 [1, 9]: D (D > 0.40)
- IC50 [2]: < 250 nM
- EC50 [3]: > 1000 nM
- Kd [4]: 250 to 500 nM
- Kd [5]: 250 to 500 nM
- Kd [6]: < 250 nM

Compound: COc1cc2ncnc(Sc3cccc(NC(=O)Nc4cc(C(F)(F)F)nn4-c4ccc(C)cc4)c3)c2cc1OC [Ex 199, 1-[3-(6,7-dimethoxyquinazolin-4-ylthio)phenyl]-3-[1-p-tolyl-3-(trifluoromethyl)-1H-pyrazol-5-yl]urea]
- S35 ([1]; asterisk: panel of 321 distinct kinases): D* (D > 0.40)
- IC50 [2]: < 250 nM
- EC50 [3]: > 1000 nM
- Kd [4]: > 1000 nM
- Kd [5]: > 1000 nM
- Kd [6]: > 1000 nM

Compound: COc1cc2ncnc(Oc3cccc(NC(=O)Nc4cc(C(C)(C)CO)no4)c3)c2cc1OC [Ex 255, 1-(3-(6,7-dimethoxyquinazolin-4-yloxy)phenyl)-3-(3-(1-hydroxy-2-methylpropan-2-yl)isoxazol-5-yl)urea]
- S35 [1, 9]: C (0.20 < C ≦ 0.40)
- IC50 [2]: > 1000 nM
- EC50 [3]: > 1000 nM
- Kd [4]: 250 to 500 nM
- Kd [5]: 250 to 500 nM
- Kd [6]: < 250 nM

Compound: COc1cc2ncnc(Oc3cccc(NC(=O)Nc4cc(C(C)(C)C(F)(F)F)nn4-c4ccccc4)c3)c2cc1OC [Ex 306, 1-(3-(6,7-dimethoxyquinazolin-4-yloxy)phenyl)-3-(1-phenyl-3-(1,1,1-trifluoro-2-methylpropan-2-yl)-1H-pyrazol-5-yl)urea]
- S35 [1, 9]: D (D > 0.40)
- IC50 [2]: < 250 nM
- Kd [4]: > 1000 nM
- Kd [5]: > 1000 nM
- Kd [6]: 250 to 500 nM

Compound: COc1cc2ncnc(Oc3cccc(NC(=O)Nc4cc(C(C)C)nn4-c4cncc(F)c4)c3)c2cc1OC [Ex 314, 1-(3-(6,7-dimethoxyquinazolin-4-yloxy)phenyl)-3-(1-(5-fluoropyridin-3-yl)-3-isopropyl-1H-pyrazol-5-yl)urea]
- Kd [7]: < 250 nM
- S35 [1, 9]: D (D > 0.40)
- IC50 [2]: 250 to 500 nM
- EC50 [3]: < 250 nM
- Kd [4]: 250 to 500 nM
- Kd [5]: 500 to 1000 nM

Compound: COc1cc2ncnc(Oc3cccc(NC(=O)Nc4cc(C(C)(F)F)nn4-c4cncc(F)c4)c3)c2cc1OC [Ex 316, 1-(3-(1,1-difluoroethyl)-1-(5-fluoropyridin-3-yl)-1H-pyrazol-5-yl)-3-(3-(6,7-dimethoxyquinazolin-4-yloxy)phenyl)urea]
- Kd [8]: < 250 nM
- Kd [7]: < 250 nM
- S35 [1, 9]: C (0.20 < C ≦ 0.40)
- IC50 [2]: 250 to 500 nM
- EC50 [3]: 500 to 1000 nM
- Kd [5]: 250 to 500 nM

Compound: COc1cc2ncnc(Oc3cccc(NC(=O)Nc4cc(C(C)(F)F)nn4-c4ccccc4)c3)c2cc1OC [Ex 318, 1-(3-(1,1-difluoroethyl)-1-phenyl-1H-pyrazol-5-yl)-3-(3-(6,7-dimethoxyquinazolin-4-yloxy)phenyl)urea]
- Kd [7]: < 250 nM
- S35 [1, 9]: C (0.20 < C ≦ 0.40)
- IC50 [2]: < 250 nM
- EC50 [3]: < 250 nM
- Kd [4]: 250 to 500 nM
- Kd [5]: 250 to 500 nM

Compound: COc1cc2ncnc(Sc3cccc(NC(=O)Nc4cc(C(C)(F)F)nn4-c4ccccc4)c3)c2cc1OC [Ex 319, 1-(3-(1,1-difluoroethyl)-1-phenyl-1H-pyrazol-5-yl)-3-(3-(6,7-dimethoxyquinazolin-4-ylthio)phenyl)urea]
- Kd [7]: < 250 nM
- S35 [1, 9]: C (0.20 < C ≦ 0.40)
- IC50 [2]: < 250 nM
- EC50 [3]: < 250 nM
- Kd [4]: 250 to 500 nM
- Kd [5]: 500 to 1000 nM

Compound: CCn1nc(C(C)(C)C)cc1NC(=O)Nc1cccc(Sc2ncnc3cc(OC)c(OC)cc23)c1 [Ex 321, 1-(3-tert-butyl-1-ethyl-1H-pyrazol-5-yl)-3-(3-(6,7-dimethoxyquinazolin-4-ylthio)phenyl)urea]
- Kd [8]: < 250 nM
- Kd [7]: < 250 nM
- S35 [1, 9]: C (0.20 < C ≦ 0.40)
- IC50 [2]: 250 to 500 nM
- EC50 [3]: 500 to 1000 nM
- Kd [5]: 250 to 500 nM

Compound: COc1cc2ncnc(Sc3cccc(NC(=O)Nc4cc(C(C)(C)C)nn4-c4cccnc4)c3)c2cc1OC [Ex 323, 1-(3-tert-butyl-1-(pyridin-3-yl)-1H-pyrazol-5-yl)-3-(3-(6,7-dimethoxyquinazolin-4-ylthio)phenyl)urea]
- Kd [7]: < 250 nM
- S35 [1, 9]: D (D > 0.40)
- IC50 [2]: < 250 nM
- EC50 [3]: 250 to 500 nM
- Kd [4]: 500 to 1000 nM
- Kd [5]: 500 to 1000 nM

Compound: COc1cc2ncnc(Oc3cccc(NC(=O)Nc4cc(C(C)C)nn4-c4ccccc4)c3)c2cc1OC [Ex 324, 1-(3-(6,7-dimethoxyquinazolin-4-yloxy)phenyl)-3-(3-isopropyl-1-phenyl-1H-pyrazol-5-yl)urea]
- Kd [7]: < 250 nM
- S35 [1, 9]: D (D > 0.40)
- IC50 [2]: < 250 nM
- EC50 [3]: < 250 nM
- Kd [4]: 250 to 500 nM
- Kd [5]: 250 to 500 nM

Compound: COc1cc2ncnc(Sc3cccc(NC(=O)Nc4cc(C(C)C)nn4-c4ccccc4)c3)c2cc1OC [Ex 325, 1-(3-(6,7-dimethoxyquinazolin-4-ylthio)phenyl)-3-(3-isopropyl-1-phenyl-1H-pyrazol-5-yl)urea]
- Kd [7]: < 250 nM
- S35 [1, 9]: C (0.20 < C ≦ 0.40)
- IC50 [2]: < 250 nM
- EC50 [3]: < 250 nM
- Kd [4]: 250 to 500 nM
- Kd [5]: 250 to 500 nM

Compound: COc1cc2ncnc(Sc3cccc(NC(=O)Nc4cc(C(C)(C)C)nn4-c4ccc(C#N)cc4)c3)c2cc1OC [Ex 329, 1-(3-tert-butyl-1-(4-cyanophenyl)-1H-pyrazol-5-yl)-3-(3-(6,7-dimethoxyquinazolin-4-ylthio)phenyl)urea]
- S35 [1, 9]: D (D > 0.40)
- IC50 [2]: < 250 nM
- Kd [4]: 500 to 1000 nM
- Kd [5]: 250 to 500 nM
- Kd [6]: 250 to 500 nM

Compound: COc1cc2ncnc(Sc3cccc(NC(=O)Nc4cc(C(C)(C)C)nn4C4CCCCC4)c3)c2cc1OC [Ex 331, 1-(3-tert-butyl-1-cyclohexyl-1H-pyrazol-5-yl)-3-(3-(6,7-dimethoxyquinazolin-4-ylthio)phenyl)urea]
- S35 [1, 9]: B (0.10 < B ≦ 0.20)
- IC50 [2]: < 250 nM
- EC50 [3]: > 1000 nM
- Kd [4]: 500 to 1000 nM
- Kd [5]: 500 to 1000 nM
- Kd [6]: 250 to 500 nM

Compound: COc1cc2ncnc(Oc3cccc(NC(=O)Nc4cc(C(C)(C)C)nn4CC(C)C)c3)c2cc1OC [Ex 332, 1-(3-tert-butyl-1-isobutyl-1H-pyrazol-5-yl)-3-(3-(6,7-dimethoxyquinazolin-4-yloxy)phenyl)urea]
- Kd [7]: < 250 nM
- S35 [1, 9]: C (0.20 < C ≦ 0.40)
- IC50 [2]: 500 to 1000 nM
- EC50 [3]: > 1000 nM
- Kd [4]: 250 to 500 nM
- Kd [5]: 250 to 500 nM

Compound: COc1cc2ncnc(Oc3cccc(NC(=O)Nc4cc(C(C)(C)C)nn4C(C)C)c3)c2cc1OC [Ex 334, 1-(3-tert-butyl-1-isopropyl-1H-pyrazol-5-yl)-3-(3-(6,7-dimethoxyquinazolin-4-yloxy)phenyl)urea]
- Kd [7]: < 250 nM
- S35 [1, 9]: C (0.20 < C ≦ 0.40)
- IC50 [2]: 500 to 1000 nM
- EC50 [3]: 500 to 1000 nM
- Kd [4]: 250 to 500 nM
- Kd [5]: 250 to 500 nM

Compound: COc1cc2ncnc(Sc3cccc(NC(=O)Nc4cc(C(C)(C)C)nn4C(C)C)c3)c2cc1OC [Ex 335, 1-(3-tert-butyl-1-isopropyl-1H-pyrazol-5-yl)-3-(3-(6,7-dimethoxyquinazolin-4-ylthio)phenyl)urea]
- Kd [7]: < 250 nM
- S35 [1, 9]: C (0.20 < C ≦ 0.40)
- IC50 [2]: 250 to 500 nM
- EC50 [3]: > 1000 nM
- Kd [4]: 250 to 500 nM
- Kd [5]: 250 to 500 nM

Compound: COc1cc2ncnc(Oc3cccc(NC(=O)Nc4cc(C(F)(F)F)nn4-c4cccc(C)c4)c3)c2cc1OC [Ex 338, 1-(3-(6,7-dimethoxyquinazolin-4-yloxy)phenyl)-3-(1-m-tolyl-3-(trifluoromethyl)-1H-pyrazol-5-yl)urea]
- Kd [7]: < 250 nM
- S35 [1, 9]: C (0.20 < C ≦ 0.40)
- IC50 [2]: < 250 nM
- EC50 [3]: < 250 nM
- Kd [4]: 250 to 500 nM
- Kd [5]: 500 to 1000 nM

Compound: COc1cc2ncnc(Sc3cccc(NC(=O)Nc4cc(C(F)(F)F)nn4-c4cccc(C)c4)c3)c2cc1OC [Ex 339, 1-(3-(6,7-dimethoxyquinazolin-4-ylthio)phenyl)-3-(1-m-tolyl-3-(trifluoromethyl)-1H-pyrazol-5-yl)urea]
- S35 [1, 9]: C (0.20 < C ≦ 0.40)
- IC50 [2]: < 250 nM
- Kd [4]: 500 to 1000 nM
- Kd [5]: > 1000 nM
- Kd [6]: 250 to 500 nM

Compound: COc1cc2ncnc(Oc3cccc(NC(=O)Nc4cc(C5(C(F)(F)F)CC5)nn4-c4ccc(C)cc4)c3)c2cc1OC [Ex 346, 1-(3-(6,7-dimethoxyquinazolin-4-yloxy)phenyl)-3-(1-p-tolyl-3-(1-(trifluoromethyl)cyclopropyl)-1H-pyrazol-5-yl)urea]
- S35 [1, 9]: D (D > 0.40)
- IC50 [2]: < 250 nM
- Kd [4]: > 1000 nM
- Kd [5]: > 1000 nM
- Kd [6]: < 250 nM

Compound: COc1cc2ncnc(Sc3cccc(NC(=O)Nc4cc(C(C)C)nn4-c4cccnc4)c3)c2cc1OC [Ex 351, 1-(3-(6,7-dimethoxyquinazolin-4-ylthio)phenyl)-3-(3-isopropyl-1-(pyridin-3-yl)-1H-pyrazol-5-yl)urea]
- Kd [8]: < 250 nM
- Kd [7]: < 250 nM
- S35 [1, 9]: C (0.20 < C ≦ 0.40)
- IC50 [2]: < 250 nM
- EC50 [3]: 250 to 500 nM
- Kd [5]: 500 to 1000 nM

Compound: COc1cc2ncnc(Oc3cccc(NC(=O)Nc4cc(C5CCC5)nn4-c4ccccc4)c3)c2cc1OC [Ex 355, 1-(3-cyclobutyl-1-phenyl-1H-pyrazol-5-yl)-3-(3-(6,7-dimethoxyquinazolin-4-yloxy)phenyl)urea]
- Kd [7]: < 250 nM
- S35 [1, 9]: C (0.20 < C ≦ 0.40)
- IC50 [2]: < 250 nM
- EC50 [3]: < 250 nM
- Kd [4]: 500 to 1000 nM
- Kd [5]: 500 to 1000 nM
